The target in the first experiment is GABA-A receptor; anion channel.
Acetylcholinesterase, sequence (P22303 whole entry): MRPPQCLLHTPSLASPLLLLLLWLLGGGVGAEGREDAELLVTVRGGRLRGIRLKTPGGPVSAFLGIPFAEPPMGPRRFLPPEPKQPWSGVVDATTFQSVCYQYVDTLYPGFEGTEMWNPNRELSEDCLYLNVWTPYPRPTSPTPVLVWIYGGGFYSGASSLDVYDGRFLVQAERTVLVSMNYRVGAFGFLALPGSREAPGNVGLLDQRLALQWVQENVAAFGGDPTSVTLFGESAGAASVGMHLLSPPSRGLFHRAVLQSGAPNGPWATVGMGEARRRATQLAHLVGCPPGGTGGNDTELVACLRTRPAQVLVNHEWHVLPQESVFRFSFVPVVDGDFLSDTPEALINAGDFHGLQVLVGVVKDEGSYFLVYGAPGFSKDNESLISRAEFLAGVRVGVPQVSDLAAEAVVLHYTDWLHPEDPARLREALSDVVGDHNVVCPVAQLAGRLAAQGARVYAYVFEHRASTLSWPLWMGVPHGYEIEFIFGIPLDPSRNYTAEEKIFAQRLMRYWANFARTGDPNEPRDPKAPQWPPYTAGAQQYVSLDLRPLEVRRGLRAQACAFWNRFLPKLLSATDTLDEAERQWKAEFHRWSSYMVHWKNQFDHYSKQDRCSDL
Description: Inhibition on Benzodiazepine receptor
As for `CC(C)COc1cc2c(cn1)[nH]c1ccccc12`, the pIC50 amounted to 7.03.
For `CC(C)(C)COc1cc2c3ccccc3nc-2c[nH]1`, the pIC50 was 7.02.
Regarding `CC(C)(C)C(=O)c1cc2c3ccccc3nc-2c[nH]1`, the pIC50 was 6.45.
`Cn1c2ccccc2c2c3[nH]c4ccccc4c3ncc21` gave a negative logarithm of the IC50 (pIC50) of 5.93.
Still for that read-out and setting: as for `c1ccc2c(c1)[nH]c1c2ncc2[nH]c3ccccc3c21`, the figure is 8.4; as for `Clc1cccc2[nH]c3c4c5ccccc5nc-4c[nH]c3c12`, 6.15.
The same measure, in the same setting: under `Cc1ccc2[nH]c3c4c5ccccc5nc-4c[nH]c3c2c1` stands 6.65; under `CC(C)(C)OC(=O)c1cc2c3ccccc3nc-2c[nH]1`, 8.
`COc1ccc(-n2nc3c4ccccc4[nH]cc-3c2=O)cc1` returned a pIC50 of 10.
Same read-out and setting: as for `CCc1nc(C(=O)OC)cc2c1[nH]c1ccccc12`, the figure is 5.12; as for `CC(C)Oc1cc2c(cn1)[nH]c1ccccc12`, 6.29; as for `CCCCOc1cc2c(cn1)[nH]c1ccccc12`, 7.01.
The compound `COc1cc2c(cn1)[nH]c1ccccc12` displayed a negative-log IC50 (pIC50) of 6.91.
In the case of `Clc1cc2c(cn1)[nH]c1ccccc12`, the pIC50 stood at 7.35.
The same measure, in the same setting: under `CCOc1cc2c(cn1)[nH]c1ccccc12` stands 7.62; under `CCCOc1cc2c(cn1)[nH]c1ccccc12`, 7.96; under `CCCC(=O)c1cc2c(cn1)[nH]c1ccccc12`, 7.64.
For `CCCCc1cc2c(cn1)[nH]c1ccccc12`, the pIC50 was 6.64.
For the compound `O=[N+]([O-])c1cc2c3ccccc3nc-2c[nH]1`, the negative-log IC50 (pIC50) worked out at 6.9.
For the compound `c1ccc2c(c1)[nH]c1c2ccc2[nH]c3ccccc3c21`, the negative logarithm of the IC50 (pIC50) is 5.71.
`CCOC(=O)c1cc2c(cn1)sc1ccccc12` returned a pIC50 of 5.77.
For `Cc1ccc2c(c1)[nH]c1c3c4ccccc4nc-3c[nH]c12`, the pIC50 was found to be 8.1.
Compound `Cc1cccc2c1[nH]c1c3c4ccccc4nc-3c[nH]c12` displayed a pIC50 of 7.17.
Compound `CCOC(=O)c1cc2c(cn1)Cc1ccccc1-2` came in with a pIC50 of 6.17.
Compound `CCOC(=O)c1cc2c(cn1)nc(O)c1ccccc12` returned a pIC50 of 5.62.
As for `COc1cccc2[nH]c3c4c5ccccc5nc-4c[nH]c3c12`, the negative-log IC50 (pIC50) is given as 6.6.
Regarding `CC(C)(C)COC(=O)c1cc2c3ccccc3nc-2c[nH]1`, the pIC50 was 6.12.
On to `Cc1cccc2[nH]c3c4c5ccccc5nc-4c[nH]c3c12`, for which the pIC50 was determined as 5.16.
`Cn1c2ccccc2c2[nH]cc3nc4ccccc4c-3c21` returned a negative logarithm of the IC50 (pIC50) of 6.8.
The same measure, in the same setting: as for `CCOC(=O)c1cc2c(cn1)oc1ccccc12`, the figure is 5.07; as for `CCC(C)Oc1cc2c3ccccc3nc-2c[nH]1` (stereo not drawn), 6.33.
`c1ccc(COc2cc3c4ccccc4nc-3c[nH]2)cc1` displayed a negative logarithm of the IC50 (pIC50) of 6.
Still for that read-out and setting: as for `CC(C)CCOc1cc2c3ccccc3nc-2c[nH]1`, the figure is 6.37; as for `COC(=O)c1cc2c(cn1)[nH]c1ccccc12` [BETA-CCM], 8.3.
The compound `O=C1C2C=Nc3ccccc3C2=NN1c1ccccc1` (stereo not drawn) [CGS-8216] had a pIC50 of 9.4.
The same measure, in the same setting: as for `O=C1C2C=Nc3ccccc3C2=NN1c1ccc(Cl)cc1` (stereo not drawn) [CGS-9896], the figure is 9.22; as for `Cc1nccc2c1[nH]c1ccccc12` [HARMAN], 4.91; as for `c1ccc2c(c1)[nH]c1cnccc12` [NORHARMANE], 5.79.

The next experiment addresses Acetylcholinesterase (Homo sapiens, UniProt P22303).
Description: Inhibition acetylcholinesterase (AChE) enzyme.
On to `CCOCC[N+](C)(C)C`, for which half-maximal inhibition (IC50) required 1160 µM.
The compound `C=CC[N+](C)(C)C` had an IC50 of 2920 µM.
Same read-out and setting: as for `COc1cccc([N+](C)(C)C)c1`, the figure is 597 µM.
The same measure, in the same setting: as for `CCSCC[N+](C)(C)C`, the figure is 1510 µM; as for `CCC(=O)Oc1cccc([N+](C)(C)C)c1C`, 753 µM.
As for `CC(=O)Oc1cccc([N+](C)(C)C)c1C`, half-maximal inhibition (IC50) required 40.8 µM.
Still for that read-out and setting: under `Cc1ccc([N+](C)(C)C)cc1O` stands 3.11 µM.
The compound `C[N+]1(C)CCO[C@@](O)(c2ccc(N)cc2)C1` showed an IC50 of 690 µM.
`C[N+](C)(C)CCCBr` showed a half-inhibitory concentration (IC50) of 87.9 µM.
Consider `C[N+](C)(C)c1cccc(N)c1`, for which it took 192 µM to reach half-maximal inhibition (IC50).
`COc1cccc([N+](C)(C)C)c1C`: the midpoint of inhibition, the IC50, lay at 239 µM.
Consider `C[N+]1(C)CCO[C@@](O)(c2ccc(Cl)cc2)C1`, for which the half-inhibitory concentration (IC50) was 8130 µM.
Still for that read-out and setting: as for `CCCC(=O)OCC[N+](C)(C)C`, the figure is 229 µM; as for `C[C@@]1(O)C[N+](C)(C)CCO1`, 1730 µM; as for `Cc1c(O)cccc1[N+](C)(C)C`, 141 µM.
In turn, `CC(=O)Oc1cccc([N+](C)(C)C)c1` showed an IC50 of 3.01 µM.
`C[N+]1(C)CCO[C@@](O)(C(F)(F)F)C1` had an IC50 of 3830 µM.
`C[N+](C)(C)CCCCBr` showed a 50% inhibitory concentration (IC50) of 597 µM.
As to `C[N+]1(C)CCO[C@H](O)C1`, the concentration for half-maximal inhibition (IC50) is 1760 µM.
Compound `C[N+](C)(C)c1cccc(O)c1` showed an IC50 of 0.973 µM.
With `CC(C)(C)[C@@]1(O)C[N+](C)(C)CCO1`, the IC50 was 3710 µM.
Compound `C[N+](C)(C)c1cccc([N+](=O)[O-])c1` had a half-inhibitory concentration (IC50) of 628 µM.
`C[N+]1(C)CCO[C@@](O)(c2ccc([N+](=O)[O-])cc2)C1` gave an IC50 of 5120 µM.

For another experiment, the system named is Leishmania amazonensis. Description: Inhibition on leishmania mexicana amazonensis. The experiment is classed as functional, organism-based.
Regarding `COc1cc(C2=NCCN2)ccc1OCCCCCOc1ccc(C2=NCCN2)cc1OC`, the concentration for half-maximal inhibition (IC50) is 4040 µM.
Take `COc1cc(C2=NCCN2)ccc1OCCCCOc1ccc(C2=NCCN2)cc1OC`: the midpoint of inhibition, the IC50, lay at 6410 µM.
`COc1cc(C2=NCCN2)ccc1OCCCOc1ccc(C2=NCCN2)cc1OC` had a 50% inhibitory concentration (IC50) of 2260 µM.
Same read-out and setting: as for `c1cc(C2=NCCN2)ccc1OCCCCOc1ccc(C2=NCCN2)cc1`, the figure is 2710 µM.
The compound `N=C(N)c1ccc(NCCCCCNc2ccc(C(=N)N)cc2N)c(N)c1` gave a half-inhibitory concentration (IC50) of 1160 µM.
Take `N=C(N)c1ccc(NCCCCCCNc2ccc(C(=N)N)cc2)cc1`: the IC50 was 289 µM.
`COc1cc(C(=N)N)ccc1OCCCCCOc1ccc(C(=N)N)cc1OC` showed an IC50 of 3030 µM.
In turn, `N=C(N)c1ccc(NCCCCCCNc2ccc(C(=N)N)cc2N)c(N)c1` had a concentration for half-maximal inhibition (IC50) of 991 µM.
In turn, `N=C(N)c1ccc(OCCCCOc2ccc(C(=N)N)cc2Cl)c(Cl)c1` had an IC50 of 1330 µM.
In the case of `N=C(N)c1ccc(NCCCNc2ccc(C(=N)N)cc2[N+](=O)[O-])c([N+](=O)[O-])c1`, it took 4830 µM to reach half-maximal inhibition (IC50).
`N=C(N)c1ccc(OCCCCCOc2ccc(C(=N)N)cc2Cl)c(Cl)c1`: the IC50 is 703 µM.
As for `N=C(N)c1ccc(OCCCOc2ccc(C(=N)N)cc2N)c(N)c1`, inhibition was half-maximal at 3500 µM (IC50).
In turn, `N=C(N)c1ccc(NCCCNc2ccc(C(=N)N)cc2)cc1` had a 50% inhibitory concentration (IC50) of 687 µM.
For the compound `N=C(N)c1ccc(OCCCCCOc2ccc(C(=N)N)cc2[N+](=O)[O-])c([N+](=O)[O-])c1`, the IC50 is 2000 µM.
Compound `COc1cc(C(=N)N)ccc1OCCCOc1ccc(C(=N)N)cc1OC` showed a concentration for half-maximal inhibition (IC50) of 1790 µM.
Consider `N=C(N)c1ccc(OCCCCCOc2ccc(C(=N)N)cc2Br)c(Br)c1`, for which the 50% inhibitory concentration (IC50) is 678 µM.
Turning to `N=C(N)c1ccc(OCCCCOc2ccc(C(=N)N)cc2N)c(N)c1`, the midpoint of inhibition, the IC50, lay at 7570 µM.
`c1cc(C2=NCCN2)ccc1OCCCCCOc1ccc(C2=NCCN2)cc1` gave a 50% inhibitory concentration (IC50) of 1720 µM.
Same read-out and setting: as for `N=C(N)c1ccc(OCCOc2ccc(C(=N)N)cc2)cc1`, the figure is 15800 µM; as for `N=C(N)c1ccc(NCCCCCNc2ccc(C(=N)N)cc2)cc1`, 558 µM.
Consider `N=C(N)c1ccc(NCCNc2ccc(C(=N)N)cc2N)c(N)c1`, for which half-maximal inhibition (IC50) required 26200 µM.
Take `N=C(N)c1cccc(OCCCCOc2cccc(C(=N)N)c2)c1`: inhibition was half-maximal at 5430 µM (IC50).
Still for that read-out and setting: as for `N=C(N)c1cccc(OCCCCCCOc2cccc(C(=N)N)c2)c1`, the figure is 1040 µM; as for `N=C(N)c1ccc(OCCCCOc2ccc(C(=N)N)cc2)cc1`, 1590 µM; as for `N=C(N)c1cccc(OCCCCCOc2cccc(C(=N)N)c2)c1`, 2130 µM.
As to `N=C(N)c1ccc(NCCCCCNc2ccc(C(=N)N)cc2[N+](=O)[O-])c([N+](=O)[O-])c1`, the IC50 was 1130 µM.
In turn, `N=C(N)c1cccc(OCCCOc2cccc(C(=N)N)c2)c1` showed a 50% inhibitory concentration (IC50) of 6100 µM.
Still for that read-out and setting: under `COc1cc(C(=N)N)ccc1OCCCCOc1ccc(C(=N)N)cc1OC` stands 10000 µM; under `N=C(N)c1ccc(NCCCCNc2ccc(C(=N)N)cc2N)c(N)c1`, 7870 µM; under `N=C(N)c1ccc(OCCOc2ccc(C(=N)N)cc2N)c(N)c1`, 22600 µM.
Still for that read-out and setting: under `N=C(N)c1ccc(NCCCCNc2ccc(C(=N)N)cc2)cc1` stands 671 µM; under `N=C(N)c1ccc(OCCOc2ccc(C(=N)N)cc2[N+](=O)[O-])c([N+](=O)[O-])c1`, 50000 µM; under `N=C(N)c1ccc(OCCCCOc2ccc(C(=N)N)cc2[N+](=O)[O-])c([N+](=O)[O-])c1`, 5600 µM.
`c1cc(C2=NCCN2)ccc1OCCCOc1ccc(C2=NCCN2)cc1` gave an IC50 of 1770 µM.
For `N=C(N)c1ccc(OCCCCCCOc2ccc(C(=N)N)cc2)cc1` [HEXAMIDINE], inhibition was half-maximal at 396 µM (IC50).
Same read-out and setting: as for `N=C(N)c1ccc(OCCCCCOc2ccc(C(=N)N)cc2)cc1` [PENTAMIDINE], the figure is 820 µM; as for `N=C(N)c1ccc(OCCCOc2ccc(C(=N)N)cc2)cc1` [PROPAMIDINE], 851 µM.

The pIC50 is the IC50 on a negative log10 scale, so that one unit is a factor of ten. A higher pIC50 goes with a small IC50. In general, IC50 refers to the midpoint of a concentration-inhibition curve. The low end stands for greater potency in that assay, the high end for weaker potency in that assay.

Source of the values: ChEMBL document CHEMBL1130277, “Three-dimensional quantitative structure-activity relationships from molecular similarity matrices and genetic neural networks. 2. Applications” (J Med Chem, 1997).
